The test system of series [1] is SF-295. Nature of the series: In vitro anticancer assay (NCI panel), SF-295. The conditions noted are these: Homo sapiens; SF-295, CNS cancer. In kind it is cell-based. As to the method:
(§1) Selected compounds were evaluated in vitro against the NCI's full panel of 60 cancer cell lines derived from nine cancer cell types, including: leukemia (CCRF-CEM, HL-60 (TB), K-562, MOLT-4, RPMI-8226, and SR); non-small cell lung cancer (A549/ATCC, EKVX, HOP-62, HOP-92, NCI-H226, NCI-H23, NCI-H322M, and NCI-H522); colon cancer (COLO 205, HCC-2998, HCT-116, HCT-15, HT29, KM12, and SW-620); CNS cancer (SF-268, SF-295, SF-539, SNB-19, SNB-75, and U251); melanoma (LOX IMVI, MALME-3M, M14, SK-MEL-2, SK-MEL-28, SK-MEL-5, UACC-62, and UACC-257); ovarian cancer (IGROV1, OVCAR-3, OVCAR-4, OVCAR-5, OVCAR-8, and SK-OV-3); renal cancer (786-0, A498, ACHN, CAKI-1, RXF 393, SN12C, TK-10, and UO-31); prostate cancer (PC-3 and DU-145); and breast cancer (MCF7, MCF7/ADR-RES, MDA-MB-231/ATCC, HS 578T, MDA-MB-435, MDA-N, and T-47D). For each compound, dose-response curves for each cell line were measured with five different drug concentrations, and the concentration causing 50% cell growth inhibition (GI50) compared with the control was calculated. The mean GI50 values of each tested compound for all the 60 tumor cell lines were also calculated.

Series [2] concerns SF-268. The series can be described thus: In vitro anticancer assay (NCI panel), SF-268. It is filed as cell-based. The following applies: Homo sapiens; SF-268, CNS cancer. How it is done:
as §1

The subject of series [3] is A549/ATCC. Nature of the series: In vitro anticancer assay (NCI panel), A549/ATCC. The conditions noted are these: Homo sapiens, non-small cell lung cancer. It is filed as cell-based. How it is done:
as §1

Series [4] concerns NCI's full panel of 60 cancer cell lines. Nature of the series: In vitro anticancer assay, all cell lines of the NCI panel. In kind it is cell-based, human. The conditions noted are these: Homo sapiens, mean values of over all cell lines tested; read-out: MG MID (mean GI50). As to the method:
as §1

Series [5] has as its system HCT-116. Nature of the series: In vitro anticancer assay (NCI panel), HCT-116. It is filed as cell-based. The conditions noted are these: Homo sapiens; HCT-116, colon cancer. As to the method: as §1
Series [6] relates to LOX IMVI. The series can be described thus: In vitro anticancer assay (NCI panel), LOX IMVI. The conditions noted are these: Homo sapiens, melanoma. In kind it is cell-based. As to the method: as §1
The subject of series [7] is OVCAR-8. The series can be described thus: In vitro anticancer assay (NCI panel), OVCAR-8. It is filed as cell-based. The following applies: Homo sapiens; OVCAR-8, ovarian cancer. As to the method: as §1
In series [8] the test system is MCF7. Nature of the series: In vitro anticancer assay (NCI panel), MCF7. In kind it is cell-based. The following applies: Homo sapiens; MCF7, breast cancer. How it is done: as §1
In series [9] the test system is SK-MEL-2. Nature of the series: In vitro anticancer assay (NCI panel), SK-MEL-2. In kind it is cell-based. The conditions noted are these: Homo sapiens; SK-MEL-2, melanoma. How it is done:
as §1

The subject of series [10] is SR. Nature of the series: In vitro anticancer assay (NCI panel), SR. In kind it is cell-based. The conditions noted are these: Homo sapiens, leukemia. As to the method:
as §1

Series [11] concerns 786-0. The series can be described thus: In vitro anticancer assay (NCI panel), 786-0. In kind it is cell-based. The conditions noted are these: Homo sapiens; 786-0, renal cancer. As to the method: as §1
Series [12] concerns SNB-19. Nature of the series: In vitro anticancer assay (NCI panel), SNB-19. In kind it is cell-based. The conditions noted are these: Homo sapiens; SNB-19, CNS cancer. As to the method: as §1
For series [13], the system named is DU-145. The series can be described thus: In vitro anticancer assay (NCI panel), DU-145. In kind it is cell-based. The following applies: Homo sapiens; DU-145, prostate cancer. How it is done:
as §1

The test system of series [14] is NCI-H460. Nature of the series: In vitro anticancer assay (NCI panel), NCI-H460. In kind it is cell-based. The following applies: Homo sapiens; NCI-H460, non-small cell lung cancer. As to the method: as §1
Series [15] relates to MDA-MB-231/ATCC. The series can be described thus: In vitro anticancer assay (NCI panel), MDA-MB-231/ATCC. In kind it is cell-based. The following applies: Homo sapiens, breast cancer. As to the method:
as §1

Series [16] has as its system HOP-62. Nature of the series: In vitro anticancer assay (NCI panel), HOP-62. It is filed as cell-based. The following applies: Homo sapiens; HOP-62, non-small cell lung cancer. How it is done:
as §1

Series [17] has as its system SN12C. The series can be described thus: In vitro anticancer assay (NCI panel), SN12C. In kind it is cell-based. The conditions noted are these: Homo sapiens, renal cancer. How it is done:
as §1

The test system of series [18] is UACC-62. The series can be described thus: In vitro anticancer assay (NCI panel), UACC-62. In kind it is cell-based. The conditions noted are these: Homo sapiens; UACC-62, melanoma. As to the method: as §1
For series [19], the system named is OVCAR-5. Nature of the series: In vitro anticancer assay (NCI panel), OVCAR-5. In kind it is cell-based. The conditions noted are these: Homo sapiens; OVCAR-5, ovarian cancer. How it is done: as §1
Series [20] has as its system COLO 205. Nature of the series: In vitro anticancer assay (NCI panel), COLO 205. It is filed as cell-based. The following applies: Homo sapiens; COLO 205, colon cancer. How it is done:
as §1

For series [21], the target named is telomerase (Homo sapiens, UniProt O14746). The series can be described thus: Telomeric Repeat Amplification Protocol (TRAP) assay, cell-free. The following applies: 0.5 μg total cell extract from H1299 human lung cancer cells, FIG. 1.
telomerase, sequence (O14746 whole entry): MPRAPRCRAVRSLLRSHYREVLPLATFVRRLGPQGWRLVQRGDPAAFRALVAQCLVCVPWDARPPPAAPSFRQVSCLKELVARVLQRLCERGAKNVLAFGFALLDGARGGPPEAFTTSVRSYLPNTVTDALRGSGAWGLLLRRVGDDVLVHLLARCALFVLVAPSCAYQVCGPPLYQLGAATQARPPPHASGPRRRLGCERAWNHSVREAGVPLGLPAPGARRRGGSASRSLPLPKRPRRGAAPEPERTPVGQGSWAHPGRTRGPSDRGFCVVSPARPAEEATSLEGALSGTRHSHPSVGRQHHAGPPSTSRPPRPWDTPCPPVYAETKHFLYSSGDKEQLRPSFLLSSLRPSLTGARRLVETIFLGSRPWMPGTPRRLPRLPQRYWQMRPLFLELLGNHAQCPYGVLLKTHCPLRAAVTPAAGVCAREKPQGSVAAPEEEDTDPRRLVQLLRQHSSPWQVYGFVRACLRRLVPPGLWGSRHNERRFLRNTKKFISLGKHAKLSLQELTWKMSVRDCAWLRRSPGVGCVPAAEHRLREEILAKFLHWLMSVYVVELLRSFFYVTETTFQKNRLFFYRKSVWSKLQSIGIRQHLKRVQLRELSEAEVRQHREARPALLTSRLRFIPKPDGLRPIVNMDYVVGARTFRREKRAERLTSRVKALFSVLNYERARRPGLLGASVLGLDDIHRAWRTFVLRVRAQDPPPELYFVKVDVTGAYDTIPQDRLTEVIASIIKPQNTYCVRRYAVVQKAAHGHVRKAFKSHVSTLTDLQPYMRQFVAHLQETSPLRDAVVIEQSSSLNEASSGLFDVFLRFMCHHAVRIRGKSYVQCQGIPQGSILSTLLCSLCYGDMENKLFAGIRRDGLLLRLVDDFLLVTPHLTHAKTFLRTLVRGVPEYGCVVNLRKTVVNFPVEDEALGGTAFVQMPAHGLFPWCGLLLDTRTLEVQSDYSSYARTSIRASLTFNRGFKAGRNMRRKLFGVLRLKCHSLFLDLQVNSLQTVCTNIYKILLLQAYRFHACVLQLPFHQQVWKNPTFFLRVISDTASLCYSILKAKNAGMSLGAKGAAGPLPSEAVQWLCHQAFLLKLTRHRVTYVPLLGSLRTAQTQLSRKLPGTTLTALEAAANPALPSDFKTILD
Series [22] relates to PC-3. The series can be described thus: In vitro anticancer assay (NCI panel), PC-3. It is filed as cell-based. The conditions noted are these: Homo sapiens; PC-3, prostate cancer. How it is done: as §1
For series [23], the system named is ACHN. The series can be described thus: In vitro anticancer assay (NCI panel), ACHN. In kind it is cell-based. The conditions noted are these: Homo sapiens, renal cancer. As to the method: as §1
The test system of series [24] is K-562. Nature of the series: In vitro anticancer assay (NCI panel), K-562. In kind it is cell-based. The following applies: Homo sapiens, K562; K-562, leukemia. As to the method: as §1
Series [25] concerns OVCAR-3. The series can be described thus: In vitro anticancer assay (NCI panel), OVCAR-3. In kind it is cell-based. The conditions noted are these: Homo sapiens; OVCAR-3, ovarian cancer. How it is done:
as §1

In series [26] the test system is HL-60 (TB). Nature of the series: In vitro anticancer assay (NCI 60 cell line panel), HL-60 (TB). In kind it is cell-based. The conditions noted are these: Homo sapiens, leukemia. As to the method: as §1
Series [27] relates to MDA-MB-435. The series can be described thus: In vitro anticancer assay (NCI panel), MDA-MB-435. It is filed as cell-based. The following applies: Homo sapiens; MDA-MB-435, breast cancer. As to the method:
as §1

Series [28] concerns HT29. The series can be described thus: In vitro anticancer assay (NCI panel), HT29. In kind it is cell-based. The following applies: Homo sapiens, HT-29; HT29, colon cancer. As to the method: as §1
Series [29] concerns human leukemia HL-60 cells. The conditions noted are these: previous studies, read-out: GI50 (50% cell growth inhibition); cited from earlier work.

In turn, `Cl.c1ccc2c(c1)nc(NCCCNCCCNc1nc3ccccc3c3[nH]c4ccccc4c13)c1c3ccccc3[nH]c21` [Compound 8a, N,N-bis-[3-(11H-indolo[3,2-c]quinolin-6-yl)aminopropyl]amine hydrochloride] came in with a melting point of 107 to 108 °C. In series [1], this compound gave a GI50 of 100 nM. In series [2], halving of growth (GI50) required 30 nM. Also, the GI50 in series [3] stood at 60 nM. Moreover, the 50% growth inhibitory concentration (GI50) in series [4] is 150 nM. In series [5], this compound gave a GI50 of 170 nM. This compound also came in with a GI50 in [6] of 70 nM. The GI50 in series [7] stood at 40 nM. This compound also gave a GI50 in series [8] of 10 nM. Moreover, in [9], the GI50 stood at 550 nM. Further, the GI50 in [10] was determined as 30 nM. In series [11], this compound yielded a GI50 of 70 nM. Besides, the GI50 in [12] was 70 nM. The GI50 in [13] was found to be 130 nM. This compound also yielded a 50% growth inhibitory concentration (GI50) in [14] of 40 nM. This compound also came in with a GI50 in series [15] of 180 nM. Further, in series [16], growth was halved (GI50) at 50 nM. Besides, the GI50 in series [17] stood at 30 nM. For the same compound, the GI50 in series [18] was 220 nM. The compound further returned a GI50 in series [19] of 220 nM. The same compound registered a 50% growth inhibitory concentration (GI50) in series [20] of 180 nM. Moreover, in [21], the “concentration that completely inhibited telomerase activity” value is “approximately 0.02 nM”. Besides, in series [22], it took 360 nM to inhibit growth by half (GI50). In [23], this compound showed a GI50 of 60 nM. This compound also showed a GI50 in series [24] of 40 nM. The GI50 in [25] was 520 nM. Growth in [26] was halved (GI50) at 40 nM. The compound also returned a GI50 in [27] of 850 nM. Halving of growth in [28] (GI50) required 50 nM.
As for `CN(C)CCNc1nc2ccccc2c2[nH]c3ccccc3c12` [IQDMA, N′-(11H-indolo[3,2-c]quinolin-6-yl)-N,N-dimethyl-ethane-1,2-diamine], the GI50 in series [29] was 1980 nM.

The values above are taken from patent publication US8273760B2, “Indolo[3,2-c]quinoline compounds” (Kaohsiung Medical University, priority 2008, dated 2012).
